Reference: paper PMC4977564, “Inhibition of Mycobacterium tuberculosis dihydrodipicolinate synthase by alpha-ketopimelic acid and its other structural analogues” (Scientific Reports, 2016)

Key:
[1] = test system: Escherichia coli DapA; settings: cited from earlier work; for Ki: competitive inhibitors, structural analogues of pyruvate
[2] = target: T1, recombinant Mtb-DapA (Mtb-rDapA) (Mycobacterium tuberculosis, UniProt P9WP25); settings: for Inhibition of Mtb-rDapA (in words): pyruvate 500 μM, ASA 400 μM, up to millimolar concentrations
[3] = target: T1, recombinant Mtb-DapA (Mtb-rDapA); experiment: biochemical; settings: for Emax: read-out: Maximal Inhibition (%)
[4] = target: Mtb-rDapA (Mycobacterium tuberculosis, UniProt P9WP25); experiment: Fluorescence-based thermal shift assay; format: binding; settings: ligand 0.2 mM to 1 mM; Mtb-rDapA Tm 84.8 °C
Text: The fluorescence based thermal shift assay for screening of identified ligands, which is based on the principle that ligand binding alters thermal stability of protein. This method allows us to monitor the protein denaturation upon heating using fluorescence based dye (Sypro orange, Sigma, USA), which binds to hydrophobic part of proteins during protein denaturation and emits fluorescence at 580 nm[43]. We can monitor the changes in fluorescence and generate a thermal melting curve using real time PCR. The mid-point of the melting curve designated as the melting temperature Tm corresponding to 50% of protein being denatured.
The thermal shift assay was carried out in the LightCycler^R LC480 qPCR machine using 384 well PCR plates (Roche, USA). An assay mixture of 20 μl contained 20 μM Mtb-rDapA, 15 X Sypro Orange (Sigma), 50 mM sodium phosphate buffer pH 7.4 and ligand in the range 0.2 mM to 1 mM. The ligands and Mtb-rDapA were diluted in sodium phosphate buffer. The PCR plates were sealed with optical seal, mixed well and centrifuged after the assay mixture was added. […] The fluorescence intensity was measured by excitation at 465 nm and emission at 580 nm. Curve fitting, melting temperature calculation and report generation on the raw Fluorescence based thermal shift assay (FTS) data were performed using pre-installed analysis software provided with the instrument (Roche, USA)[44].

T1 sequence (P9WP25 whole entry, looked up): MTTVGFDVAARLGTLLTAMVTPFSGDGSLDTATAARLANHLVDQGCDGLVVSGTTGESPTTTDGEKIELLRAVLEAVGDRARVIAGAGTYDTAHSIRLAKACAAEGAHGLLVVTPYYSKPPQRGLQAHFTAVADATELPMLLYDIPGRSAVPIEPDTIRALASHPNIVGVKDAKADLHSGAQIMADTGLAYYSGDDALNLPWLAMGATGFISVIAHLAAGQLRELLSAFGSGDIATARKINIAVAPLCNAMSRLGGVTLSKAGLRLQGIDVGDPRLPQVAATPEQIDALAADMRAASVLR
Sequence of Mtb-rDapA (P9WP25 whole entry, looked up): as above

Structure (SMILES)	Emax [3] [%]	also measured
O=C(O)C(=O)CF [3-fluoropyruvate]		Ki [1]: 220 µM
N[C@@H](CC=O)C(=O)O [ASA, L-aspartate-beta-semialdehyde]		Km ([2]; read-out: Michaelis constant, Km, substrate of Mtb-rDapA): 388 µM
O=C(O)c1cccc(C(=O)O)[n+]1[O-] [N-oxide of dipicolinic acid]		IC50 [1]: 200 µM
O=C(O)CCCC(=O)C(=O)O [compound 2, 2-oxohexanedioic acid]	40	
O=C(O)CCC(=O)C(=O)O [compound 3, 2-oxopentanedioic acid]	15	
O=C(O)CCCCCC(=O)O [compound 4, heptanedioic acid]	10	
O=C(O)c1ccccc1 [compound 5, Benzoic acid]	2	Inhibition of Mtb-rDapA (in words) [2]: None of these showed inhibition
Nc1ccc(C(=O)O)cc1 [compound 6, p-amino benzoic acid]	8	
CCCC(=O)CC(=O)OC [compound 7, Methyl 3-oxohexanoate]	5	Inhibition of Mtb-rDapA (in words) [2]: did not show any inhibition
Nc1ccc(C(=O)O)c(O)c1 [compound 8, 4-amino-2-hydroxy-benzoic acid]	4	Inhibition of Mtb-rDapA (in words) [2]: None of these showed inhibition
O=C(O)COc1ccccc1 [compound 9, 2-phenoxyacetic acid]	4	Inhibition of Mtb-rDapA (in words) [2]: None of these showed inhibition
CCCCc1ccc(C(=O)O)nc1 [compound 10, 5-butylpyridine-2-carboxylic acid]	5	Inhibition of Mtb-rDapA (in words) [2]: None of these showed inhibition
O=C(O)CCCCC(O)C(=O)O (centres unmarked) [compound 11, hydroxyheptanedioic acid]	74	IC50 ([3]; IC50, pyruvate 500 μM, ASA 400 μM): 31 µM
COC(=O)CCCC(=O)NC(N)=O [compound 12, Methyl-oxo-ureidopentanoate]	65	
NC(=O)SCCCCC(=O)O [compound 13, 5-(Carbamoylthio)pentanoic acid]	65	
CN(CCCC(N)=O)C(=O)C(=O)O [compound 14, amino-oxobutyl-methyl-amino-oxoacetic acid]	44	
CCOC(=O)C(=O)N(C)CCCC(=O)OC [compound 15, methyl-ethoxy-methyl-oxoacetamido-butanoate]	42	
NC(=O)NC(=O)CCCC(=O)O [compound 16, oxo-ureidopentanoic acid]	40	
CN(CCCC(N)=O)C(=O)C(N)=O [compound 17, amino-oxobutyl-methyloxalamide]	40	
CN(CCCC(=O)O)C(=O)C(=O)O [compound 18, carboxy-methylformamido-butanoic acid]	39	
COC(=O)CCCN1C(=O)NC(=O)C1=O [compound 19, methyl-trioxoimidazolidin -butanoate]	38	
CCOC(=O)C(=O)CCCCC(=O)O [compound 20, Ethoxy-dioxoheptanoic acid]	35	
COC(=O)CCCCC(=O)c1nn[nH]n1 [compound 21, methyl-oxo-tetrazol-hexanoate]	35	
COC(=O)c1ccc(C(=O)C(N)=O)cc1 [compound 22, Methyl-amino-oxoacetyl benzoate]	35	

Structure (SMILES)	Emax [3] [%]	also measured
O=C(O)c1ccc(C(O)C(=O)O)cc1 (centres unmarked) [compound 23, Carboxy-hydroxy-methyl benzoic acid]	35	
COC(=O)c1ccc(C(O)C(=O)O)cc1 (centres unmarked) [compound 24, Hydroxy-methoxycarbonyl pheny acetic acid]	35	
CCOC(=O)C(=O)N(C)CCCC(N)=O [compound 25, Ethyl-amino-oxobutyl-methyl-amino-oxoacetate]	35	
NC(=O)C(=O)c1ccc(C(=O)O)cc1 [compound 26, amino-oxoacetyl-benzoic acid]	34	
CCOC(=O)CCCCSC(N)=O [compound 27, ethyl-carbamoylthio-pentanoate]	34	
CCOC(=O)CCC[S+]([O-])CC(N)=O (centres unmarked) [compound 28, Ethyl 4-((2-amino-2-oxoethyl)sulfinyl)butanoate]	31	
COC(=O)c1ccc(C(=O)C(=O)O)cc1 [compound 29, methoxycarbonyl-phenyl-oxoacetic acid]	29	
NC(=O)CS(=O)(=O)CCCC(=O)O [compound 30, 4-((2-amino-2-oxoethyl)sulfonyl) butanoic acid]	29	
COC(=O)CCCCC(O)C(N)=O (centres unmarked) [compound 31, Methyl 7-amino-6-hydroxy-7-oxoheptanoate]	28	
COC(=O)CCCCC(=O)C(N)=O [compound 32, methyl 7-amino-6,7-dioxoheptanoate]	24	
O=C(O)C(=O)c1ccc(C(=O)O)cc1 [compound 33, carboxycarbonyl-benzoic acid]	22	
CCOC(=O)CCCSCC(N)=O [compound 34, Ethyl 4-((2-amino-2-oxoethyl)thio)butanoate]	21	
NC(=O)CCCCC(O)C(N)=O (centres unmarked) [compound 35, 2-Hydroxyheptanediamide]	21	
O=C(O)CCCN1C(=O)NC(=O)C1=O [compound 36, 4-(2,4,5-Trioxoimidazolidin-1-yl) butanoic acid]	21	
NC(=O)c1ccc(C(=O)C(=O)O)cc1 [compound 37, 2-(4-Carbamoylphenyl)-2-oxoacetic acid]	15	
NC(=O)CSCCCC(=O)O [compound 38, 4-((2-Amino-2-oxoethyl)thio) butanoic acid]	15	
CCOC(=O)CCCS(=O)(=O)CC(N)=O [compound 39, Ethyl 4-((2-amino-2-oxoethyl)sulfonyl)butanoate]	12	
COC(=N)c1cccc(C(=N)OC)n1 [di-imidate of dimethyl pyridine-2,6-dicarboxylate]		IC50 [1]: 200 µM
O=CC(=O)O [glyoxylate]		Ki [1]: 16 µM
Nc1ccc(C(=O)O)cc1 [p-amino benzoic acid]		Inhibition of Mtb-rDapA (in words) [2]: None of these showed inhibition
CC(=O)C(=O)O [pyruvate]		Tm increase of Mtb-rDapA upon binding [4]: 2 °C
CCC(=O)C(=O)O [α-ketobutyrate]		Ki [1]: 830 µM
CCCC(=O)C(=O)O [α-ketovalerate]		Ki [1]: 700 µM
